The IC50 is the concentration at which inhibition is half-maximal.

For this test, the target named is T1, PHD2 (Homo sapiens, UniProt Q9GZT9).
T1 construct: FLAG-tagged full length PHD2 expressed in and purified from baculovirus-infected Sf9 cells; FLAG; made in house; host or cells: baculovirus-infected Sf9 cells
T1 sequence (Q9GZT9 whole entry, species assumed): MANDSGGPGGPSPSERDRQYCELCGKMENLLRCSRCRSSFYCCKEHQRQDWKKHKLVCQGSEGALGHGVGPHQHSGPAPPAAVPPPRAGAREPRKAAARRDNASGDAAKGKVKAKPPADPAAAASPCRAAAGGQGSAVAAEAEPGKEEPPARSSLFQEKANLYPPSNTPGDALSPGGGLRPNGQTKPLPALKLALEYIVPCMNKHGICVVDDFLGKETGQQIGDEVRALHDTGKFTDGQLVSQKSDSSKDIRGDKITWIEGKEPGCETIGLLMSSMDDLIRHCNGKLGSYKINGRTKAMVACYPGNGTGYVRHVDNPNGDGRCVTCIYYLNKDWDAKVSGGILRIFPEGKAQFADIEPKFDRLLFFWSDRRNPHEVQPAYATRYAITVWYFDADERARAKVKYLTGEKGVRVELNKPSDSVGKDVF
Nature of the test: PHD2 inhibition assay (time resolved fluorescence, HIF-1α peptide hydroxylation / VHL complex detection). To be noted: FLAG-tagged full length PHD2; 0.2 μM 2-oxoglutarate, 0.5 μM HIF-1α peptide. Type of test: biochemical. The protocol: To each well of a 96-well plate was added 1 μL of test compound in DMSO and 20 μl of assay buffer (50 mM Iris pH 7.4/0.01% Tween-20/0.1 mg/ml bovine serum albumin/10 μM ferrous sulfate/1 mM sodium ascorbate/20 μg/ml catalase) containing 0.15 μg/ml FLAG-tagged full length PHD2 expressed in and purified from baculovirus-infected Sf9 cells. After a 30 min preincubation at room temperature, the enzymatic reactions were initiated by the addition of […] of substrates (final concentrations of 0.2 μM 2-oxoglutarate and 0.5 μM HIF-1α peptide biotinyl-DLDLEMLAPYIPMDDDFQL (SEQ ID NO:1)). After 2 hr at room temperature, the reactions were terminated and signals were developed by the addition of a 25 μL quench/detection mix to a final concentration of 1 mM ortho-phenanthroline, 0.1 mM EDTA, 0.5 nM anti-(His)6 LANCE reagent (Perkin-Elmer Life Sciences), 100 nM AF647-labeled streptavidin (Invitrogen), and 2 μg/ml (His)-6-VHL complex (S. Tan(2001) Protein Expr. Purif. 21, 224-234). The ratio of time resolved fluorescence signals at 665 and 620 nm was determined, and percent inhibition was calculated relative to an uninhibited control sample run in parallel.
With `O=C(Cc1cccc2ccccc12)Nc1cnc(-n2cccn2)nc1O` [Compound 3-39, N-(4-hydroxy-2-(1H-pyrazol-1-yl)pyrimidin-5-yl)-2-(naphthalen-1-yl)acetamide], the IC50 was 0.5 to 20 nM. As to `O=C(Cc1ccc2c(c1)OCO2)Nc1cnc(-n2cccn2)nc1O` [Compound 3-40, 2-(benzo[d][1,3]dioxol-5-yl)-N-(4-hydroxy-2-(1H-pyrazol-1-yl)pyrimidin-5-yl)acetamide], the IC50 is 0.5 to 20 nM. Consider `O=C(Cc1ccncc1)Nc1cnc(-n2cccn2)nc1O` [Compound 3-41, N-(4-hydroxy-2-(1H-pyrazol-1-yl)pyrimidin-5-yl)-2-(pyridin-4-yl)acetamide], for which the IC50 is 20 to 100 nM. Under `O=C(Cc1ccc(-c2ccccc2)cc1)Nc1cnc(-n2cccn2)nc1O` [Compound 3-42, 2-(biphenyl-4-yl)-N-(4-hydroxy-2-(1H-pyrazol-1-yl)pyrimidin-5-yl)acetamide] stands 0.5 to 20 nM. `CCCCCCC(=O)Nc1cnc(-n2cccn2)nc1O` [Compound 3-43, N-(4-hydroxy-2-(1H-pyrazol-1-yl)pyrimidin-5-yl)heptanamide] came in with an IC50 of 0.5 to 20 nM.

Molecule `O=C(CCc1ccccc1)Nc1cnc(-n2cccn2)nc1O` [Compound 3-44, N-(4-hydroxy-2-(1H-pyrazol-1-yl)pyrimidin-5-yl)-3-phenylpropanamide] yielded an IC50 of 20 to 100 nM. Under `O=C(CCCc1ccccc1)Nc1cnc(-n2cccn2)nc1O` [Compound 3-45, N-(4-hydroxy-2-(1H-pyrazol-1-yl)pyrimidin-5-yl)-4-phenylbutanamide] stands 0.5 to 20 nM.

Molecule `O=C(Nc1cnc(-n2cccn2)nc1O)C1CCCCC1` [Compound 3-46, N-(4-hydroxy-2-(1H-pyrazol-1-yl)pyrimidin-5-yl)cyclohexanecarboxamide] returned an IC50 of 20 to 100 nM.

`CC(C)(C)OC(=O)N1CCC(C(=O)Nc2cnc(-n3cccn3)nc2O)CC1` [Compound 3-47, tert-butyl4-(4-hydroxy-2-(1H-pyrazol-1-yl)pyrimidin-5-ylcarbamoyl)piperidine-1-carboxylate] showed an IC50 of 0.5 to 20 nM. As for `O=C(CC1CCCCC1)Nc1cnc(-n2cccn2)nc1O` [Compound 3-48, 2-cyclohexyl-N-(4-hydroxy-2-(1H-pyrazol-1-yl)pyrimidin-5-yl)acetamide], the figure is 0.5 to 20 nM; as for `CC(C)(C)OC(=O)N1CCCC(C(=O)Nc2cnc(-n3cccn3)nc2O)C1` (stereo not drawn) [Compound 3-49, tert-butyl 3-(4-hydroxy-2-(1H-pyrazol-1-yl)pyrimidin-5-ylcarbamoyl)piperidine-1-carboxylate], 100 to 10000 nM.

For the molecule `CC(C)(C)OC(=O)N1CCC(CC(=O)Nc2cnc(-n3cccn3)nc2O)CC1` [Compound 3-50, tert-butyl4-((4-hydroxy-2-(1H-pyrazol-1-yl)pyrimidin-5-ylcarbamoyl)methyl)piperidine-1-carboxylate], the IC50 is 20 to 100 nM. As for `CC(C)(C)OC(=O)N1CCC(C(=O)Nc2cnc(-n3cccn3)nc2O)C1` (stereo not drawn) [Compound 3-51, tert-butyl 3-(4-hydroxy-2-(1H-pyrazol-1-yl)pyrimidin-5-ylcarbamoyl)pyrrolidine-1-carboxylate], the figure is 20 to 100 nM; as for `O=C(Nc1cnc(-n2cccn2)nc1O)C1CCCc2ccccc21` (stereo not drawn) [Compound 3-52, 1,2,3,4-tetrahydro-N-(4-hydroxy-2-(1H-pyrazol-1-yl)pyrimidin-5-yl)naphthalene-1-carboxamide], 0.5 to 20 nM.

`O=C(Nc1cnc(-n2cccn2)nc1O)C1CCc2ccccc21` (stereo not drawn) [Compound 3-53, 2,3-dihydro-N-(4-hydroxy-2-(1H-pyrazol-1-yl)pyrimidin-5-yl)-1H-indene-1-carboxamide] returned an IC50 of 0.5 to 20 nM. Under `O=C(Nc1cnc(-n2cccn2)nc1O)C1CCc2ccccc2C1` (stereo not drawn) [Compound 3-54, 1,2,3,4-tetrahydro-N-(4-hydroxy-2-(1H-pyrazol-1-yl)pyrimidin-5-yl)naphthalene-2-carboxamide] stands 20 to 100 nM; under `O=C(Nc1cnc(-n2cccn2)nc1O)C1Cc2ccccc2C1` [Compound 3-55, 2,3-dihydro-N-(4-hydroxy-2-(1H-pyrazol-1-yl)pyrimidin-5-yl)-1H-indene-2-carboxamide], 0.5 to 20 nM. Under `O=S(=O)(Nc1cnc(-n2cccn2)nc1O)c1ccc(Cl)cc1` [Compound 4-1, 4-chloro-N-[4-hydroxy-2-(1H-pyrazol-1-yl)pyrimidin-5-yl]benzenesulfonamide] stands 20 to 100 nM; under `O=S(=O)(Cc1ccc(Cl)cc1)Nc1cnc(-n2cccn2)nc1O` [Compound 4-2, 1-(4-chlorophenyl)-N-[4-hydroxy-2-(1H-pyrazol-1-yl)pyrimidin-5-yl]methanesulfonamide], 20 to 100 nM.

On to `O=S(=O)(Nc1cnc(-n2cccn2)nc1O)c1cccc(Cl)c1` [Compound 4-3, 3-chloro-N-[4-hydroxy-2-(1H-pyrazol-1-yl)pyrimidin-5-yl]benzenesulfonamide], for which the concentration for half-maximal inhibition (IC50) is 100 to 10000 nM. As for `O=S(=O)(Cc1ccc(C(F)(F)F)cc1)Nc1cnc(-n2cccn2)nc1O` [Compound 4-4, N-[4-hydroxy-2-(1H-pyrazol-1-yl)pyrimidin-5-yl]-1-[4-(trifluoromethyl)phenyl]methanesulfonamide], the figure is 100 to 10000 nM. Under `O=C(Nc1ccccc1)Nc1cnc(-n2cccn2)nc1O` [Compound 5-1, 1-(4-hydroxy-2-(1H-pyrazol-1-yl)pyrimidin-5-yl)-3-phenylurea] stands 100 to 10000 nM; under `O=C(NCc1ccccc1)Nc1cnc(-n2cccn2)nc1O` [Compound 5-2, 1-benzyl-3-(4-hydroxy-2-(1H-pyrazol-1-yl)pyrimidin-5-yl)urea], 0.5 to 20 nM.

Regarding `CC(NC(=O)Nc1cnc(-n2cccn2)nc1O)c1ccccc1` (stereo not drawn) [Compound 5-3, 1-(4-hydroxy-2-(1H-pyrazol-1-yl)pyrimidin-5-yl)-3-(1-phenylethyl)urea], the IC50 fell in the range of 0.5 to 20 nM. The molecule `O=C(Nc1cnc(-n2cccn2)nc1O)NC1CCCCC1` [Compound 5-4, 1-cyclohexyl-3-(4-hydroxy-2-(1H-pyrazol-1-yl)pyrimidin-5-yl)urea] yielded an IC50 of 20 to 100 nM. As for `O=C(Nc1cnc(-n2cccn2)nc1O)NC1CCCC1` [Compound 5-5, 1-cyclopentyl-3-(4-hydroxy-2-(1H-pyrazol-1-yl)pyrimidin-5-yl)urea], the figure is 100 to 10000 nM.

With `CC(C)(C)NC(=O)Nc1cnc(-n2cccn2)nc1O` [Compound 5-6, ert-butyl-3-(4-hydroxy-2-(1H-pyrazol-1-yl)pyrimidin-5-yl)urea], the IC50 was 100 to 10000 nM. Under `O=C(Nc1cnc(-n2cccn2)nc1O)N(c1ccccc1)c1ccccc1` [Compound 5-7, 3-(4-hydroxy-2-(1H-pyrazol-1-yl)pyrimidin-5-yl)-1,1-diphenylurea] stands 0.5 to 20 nM. In the case of `CC(C)N(C(=O)Nc1cnc(-n2cccn2)nc1O)c1ccccc1` [Compound 5-8, 3-(4-hydroxy-2-(1H-pyrazol-1-yl)pyrimidin-5-yl)-1-isopropyl-1-phenylurea], the IC50 was in the range of 20 to 100 nM. As for `O=C(Nc1cnc(-n2cccn2)nc1O)Oc1ccccc1` [Compound 5-9, phenyl 4-hydroxy-2-(1H-pyrazol-1-yl)pyrimidin-5-ylcarbamate], the figure is 100 to 10000 nM; as for `O=C(Nc1cnc(-n2cccn2)nc1O)OC1CCCCC1` [Compound 5-10, cyclohexyl 4-hydroxy-2-(1H-pyrazol-1-yl)pyrimidin-5-ylcarbamate], 20 to 100 nM.

Molecule `O=C(Nc1cnc(-n2cccn2)nc1O)OC1CCCC1` [Compound 5-11, cyclopentyl 4-hydroxy-2-(1H-pyrazol-1-yl)pyrimidin-5-ylcarbamate] displayed an IC50 of 20 to 100 nM. In turn, `CC(C)(C)OC(=O)Nc1cnc(-n2cccn2)nc1O` [Compound 5-12, tert-butyl 4-hydroxy-2-(1H-pyrazol-1-yl)pyrimidin-5-yl carbamate] displayed an IC50 of 100 to 10000 nM. As for `CCCCOC(=O)Nc1cnc(-n2cccn2)nc1O` [Compound 5-13, butyl 4-hydroxy-2-(1H-pyrazol-1-yl)pyrimidin-5-ylcarbamate], the figure is 100 to 10000 nM; as for `COc1ccc(OC(=O)Nc2cnc(-n3cccn3)nc2O)cc1` [Compound 5-14, 4-methoxyphenyl 4-hydroxy-2-(1H-pyrazol-1-yl)pyrimidin-5-ylcarbamate], 20 to 100 nM; as for `CC(C)(C)CCOC(=O)Nc1cnc(-n2cccn2)nc1O` [Compound 5-15, 3,3-dimethylbutyl 4-hydroxy-2-(1H-pyrazol-1-yl)pyrimidin-5-ylcarbamate], 20 to 100 nM. As for `O=C(Nc1cnc(-n2cccn2)nc1O)OCCc1ccccc1` [Compound 5-16, phenethyl 4-hydroxy-2-(1H-pyrazol-1-yl)pyrimidin-5-ylcarbamate], the figure is 20 to 100 nM; as for `O=C(Nc1cnc(-n2cccn2)nc1O)Oc1ccc(-c2ccccc2)cc1` [Compound 5-17, biphenyl-4-yl 4-hydroxy-2-(1H-pyrazol-1-yl)pyrimidin-5-ylcarbamate], 100 to 10000 nM; as for `O=C(Nc1cnc(-n2cccn2)nc1O)Oc1ccc2ccccc2c1` [Compound 5-18, naphthalen-2-yl 4-hydroxy-2-(1H-pyrazol-1-yl)pyrimidin-5-ylcarbamate], 100 to 10000 nM.

The values above are taken from patent US9006433B2, “Substituted pyrimidines” (Merck Sharp & Dohme Corp., priority 2010, dated 2015).
